Reference: patent publication US20260258420A1, “COMPOSITIONS AND METHODS FOR THE TREATMENT OF HUMAN PAPILLOMAVIRUS-DRIVEN CANCERS” (priority 2023, published 2026)

Key:
[1] = test system: 17 HPV-negative HNSCC and cervical squamous cancer cell lines; test: High-throughput drug screen (HTDS), cell death by AOC_LD, HPV-negative cell lines; assay type: cell-based; conditions: for HPV negative Resistant (number of cell lines): resistant = AOC_LD 0; for HPV negative Sensitive (number of cell lines): sensitive = AOC_LD greater than 0
Method: (§1) The concordance correlation coefficient was computed to assess the reproducibility of the normalized growth rates of the 2 replicates. […] A chi-square test was applied to compare drug classification and the cluster membership. The Fisher exact test was applied to compare mutations status (wild-type and mutant) and drugs' response data (sensitive and resistant).
(§2) The effects of 864 unique drugs from 51 classes was tested in 16 HPV-positive and 17 HPV-negative HNSCC and cervical squamous cancer cell lines (Table 2) that were characterized previously (Kaiu, et al., Oncotarget 2017; 8(49):86369-83).

[2] = test system: 16 HPV-positive HNSCC and cervical squamous cancer cell lines; test: High-throughput drug screen (HTDS), cell death by AOC_LD, HPV-positive cell lines; assay type: cell-based; conditions: for HPV positive Resistant (number of cell lines): resistant = AOC_LD 0; for HPV positive Sensitive (number of cell lines): sensitive = AOC_LD greater than 0
Method: as §1, §2

[3] = test system: 16 HPV-positive and 17 HPV-negative HNSCC and cervical squamous cancer cell lines; test: High-throughput drug screen (HTDS), whole panel, comparison by HPV status; assay type: cell-based; conditions: for odds ratio: sensitivity in HPV-positive vs HPV-negative cell lines; for efficacy in HPV-positive vs HPV-negative cell lines: AOC_LD as a dichotomous variable
Method: as §1, §2

[4] = test system: SiHa; conditions: cited from earlier work
[5] = test system: ME180; conditions: cited from earlier work
[6] = test system: CaSki; conditions: cited from earlier work
[7] = test system: Vu147T; conditions: cited from earlier work
[8] = test system: UPCI-SCC-090; conditions: cited from earlier work
[9] = test system: UDSCC2; conditions: cited from earlier work
[10] = HNSCC patients who received 100 mg/m^2; read-out: plasma Cmax; cited from earlier work

In the case of `CCCCCCOC(=O)[C@]1(O)C[C@@H]2O[C@@]1(C)n1c3ccccc3c3c4c(c5c6ccccc6n2c5c31)C(=O)NC4` [KT5720], the “HPV negative Resistant (number of cell lines)” value (shortened to “HPV negative Resistant”) [1] is reported as 17, the “HPV negative Sensitive (number of cell lines)” value (from here on “HPV negative Sensitive”) [1] is reported as 0 and the “HPV positive Resistant (number of cell lines)” value (“HPV positive Resistant” for short) [2] is reported as 12. For the same compound, the “HPV positive Sensitive (number of cell lines)” value (“HPV positive Sensitive” for short) [2] was 4 and the odds ratio [3] was “Inf”.
In the case of `COC(=O)c1ccc2c(c1)NC(=O)/C2=C(\Nc1ccc(N(C)C(=O)CN2CCN(C)CC2)cc1)c1ccccc1` [NINTEDANIB], the “HPV negative Resistant” value [1] is reported as 17, the “HPV negative Sensitive” value [1] is reported as 0 and the “HPV positive Resistant” value [2] is reported as 11. For the same compound, the “HPV positive Sensitive” value [2] was 5 and the odds ratio [3] was “Inf”.
For `CC(=O)NCC(=O)N1[C@@H]2CC[C@H]1c1ccc(Nc3ncc(C(F)(F)F)c(NC4CCC4)n3)cc12` [PF03814735], the “HPV negative Resistant” value [1] was 15, the “HPV negative Sensitive” value [1] was 2 and the “HPV positive Resistant” value [2] was 8. For the same compound, the “HPV positive Sensitive” value [2] was 8, the “efficacy in HPV-positive vs HPV-negative cell lines” value [3] was “tended to be more effective in HPV-positive cell lines” and the odds ratio [3] was 7.02.
In the case of `O=C(Nc1cccc(Cl)c1)Nc1ncc(CCNc2ncnc3ccsc23)s1` [SNS314], the “HPV negative Resistant” value [1] is reported as 15, the “HPV negative Sensitive” value [1] is reported as 2 and the “HPV positive Resistant” value [2] is reported as 8. For the same compound, the “HPV positive Sensitive” value [2] was 8 and the “efficacy in HPV-positive vs HPV-negative cell lines” value [3] was “tended to be more effective in HPV-positive cell lines”.
In the case of `Cc1cc(Nc2cc(N3CCN(C)CC3)nc(Sc3ccc(NC(=O)C4CC4)cc3)n2)[nH]n1` [TOZASERTIB, tozasertib], the “HPV negative Resistant” value [1] is reported as 15, the “HPV negative Sensitive” value [1] is reported as 2 and the “HPV positive Resistant” value [2] is reported as 7. The “HPV positive Sensitive” value [2] was 9 and the “efficacy in HPV-positive vs HPV-negative cell lines” value [3] was “tended to be more effective in HPV-positive cell lines”.
For `COc1cc2c(Nc3ccc(NC(=O)c4ccccc4)cc3)ncnc2cc1OCCCN1CCOCC1` [ZM447439], the “HPV negative Resistant” value [1] was 14, the “HPV negative Sensitive” value [1] was 3 and the “HPV positive Resistant” value [2] was 6. The “HPV positive Sensitive” value [2] was 10, the “efficacy in HPV-positive vs HPV-negative cell lines” value [3] was “tended to be more effective in HPV-positive cell lines” and the odds ratio [3] was 7.24.
In the case of `N.N.[Cl][Pt][Cl]` [cisplatin], the IC50 [4] is listed as 28 µM, the IC50 [5] is listed as 12 µM and the IC50 [6] is listed as 15 µM. The IC50 [7] was 11.2 µM, the IC50 [8] was 11.1 µM and the IC50 [9] was 18 µM. For the same compound, the Cmax [10] was 11 µM.
In the case of BLEOMYCIN, the “HPV negative Resistant” value [1] is reported as 13, the “HPV negative Sensitive” value [1] is reported as 4 and the “HPV positive Resistant” value [2] is reported as 6. The “HPV positive Sensitive” value [2] was 10 and the odds ratio [3] was 5.12.
For WYE354, the “HPV negative Resistant” value [1] was 16, the “HPV negative Sensitive” value [1] was 1 and the “HPV positive Resistant” value [2] was 10. For the same compound, the “HPV positive Sensitive” value [2] was 6 and the odds ratio [3] was 8.98.
